Measurements reported in ChEMBL document CHEMBL3822398, “Design, synthesis and in vitro biological evaluation of short-chain C12-sphinganine and its 1,2,3-triazole analogs as potential antimicrobial and anti-biofilm agents” (Eur J Med Chem, 2016).
Converted amounts (≈) assume the structure as drawn. The source made the active and inactive calls. No cut-off for these calls is given here.

What follows are compounds tested on Candida albicans (assay: Antifungal activity against Candida albicans MTCC 7315 incubated for 24 hrs at 30 degC by well diffusion method). Conditions: MTCC 7315, 24 h.
Type: functional

Row | MIC [µg/mL] | Structure (SMILES)
1 | 7.8 (≈ 18.7 µM) | Clc1ccc(COC(Cn2ccnc2)c2ccc(Cl)cc2Cl)c(Cl)c1 (centres undefined) [MICONAZOLE]

Each compound was assayed on Candida albicans (assay: Fungicidal activity against Candida albicans MTCC 3018 incubated for 24 hrs). Conditions: MTCC 3018, 24 h.
Type: functional

Row | Structure (SMILES) | MFC [µg/mL]
2 | Clc1ccc(COC(Cn2ccnc2)c2ccc(Cl)cc2Cl)c(Cl)c1 (centres undefined) [MICONAZOLE] | 7.8 (≈ 18.7 µM)

What follows are compounds tested on Candida albicans (assay: Fungicidal activity against Candida albicans MTCC 183 incubated for 24 hrs). Conditions: MTCC 183, 24 h.
Type: functional

Row | Structure (SMILES) | MFC [µg/mL]
3 | Clc1ccc(COC(Cn2ccnc2)c2ccc(Cl)cc2Cl)c(Cl)c1 (centres undefined) [MICONAZOLE] | 7.8 (≈ 18.7 µM)

The compounds below were run on [Candida] aaseri (assay: Fungicidal activity against Candida aaseri MTCC 1962 incubated for 24 hrs). Conditions: Yamadazyma aaseri, MTCC 1962, 24 h.
Type: functional

Row | Structure (SMILES) | MFC [µg/mL]
4 | Clc1ccc(COC(Cn2ccnc2)c2ccc(Cl)cc2Cl)c(Cl)c1 (centres undefined) [MICONAZOLE] | 7.8 (≈ 18.7 µM)

What follows are compounds tested on Pichia sporocuriosa (assay: Fungicidal activity against Issatchenkia hanoiensis MTCC 4755 incubated for 24 hrs). Conditions: MTCC 4755, 24 h.
Type: functional

Row | Structure (SMILES) | MFC [µg/mL]
5 | Clc1ccc(COC(Cn2ccnc2)c2ccc(Cl)cc2Cl)c(Cl)c1 (centres undefined) [MICONAZOLE] | 7.8 (≈ 18.7 µM)

These compounds were tested on Candida albicans (assay: Antifungal activity against Candida albicans MTCC 4748 incubated for 24 hrs at 30 degC by well diffusion method). Conditions: MTCC 4748, 24 h.
Type: functional

Row | MIC [µg/mL] | Structure (SMILES)
6 | 7.8 (≈ 18.7 µM) | Clc1ccc(COC(Cn2ccnc2)c2ccc(Cl)cc2Cl)c(Cl)c1 (centres undefined) [MICONAZOLE]

These compounds were tested on Candida albicans (assay: Fungicidal activity against Candida albicans MTCC 1637 incubated for 24 hrs). Conditions: MTCC 1637, 24 h.
Type: functional

Row | Structure (SMILES) | MFC [µg/mL]
7 | Clc1ccc(COC(Cn2ccnc2)c2ccc(Cl)cc2Cl)c(Cl)c1 (centres undefined) [MICONAZOLE] | 15.6 (≈ 37.5 µM)

These compounds were tested on Pichia kudriavzevii (assay: Antifungal activity against Candida krusei MTCC 3020 incubated for 24 hrs at 30 degC by well diffusion method). Conditions: MTCC 3020, 24 h.
Type: functional

Row | MIC [µg/mL] | Structure (SMILES)
8 | 7.8 (≈ 18.7 µM) | Clc1ccc(COC(Cn2ccnc2)c2ccc(Cl)cc2Cl)c(Cl)c1 (centres undefined) [MICONAZOLE]

The compounds below were run on Candida albicans (assay: Antifungal activity against Candida albicans MTCC 227 incubated for 24 hrs at 30 degC by well diffusion method). Conditions: MTCC 227, 24 h.
Type: functional

Row | MIC [µg/mL] | Structure (SMILES)
9 | 7.8 (≈ 18.7 µM) | Clc1ccc(COC(Cn2ccnc2)c2ccc(Cl)cc2Cl)c(Cl)c1 (centres undefined) [MICONAZOLE]

The compounds below were run on Candida albicans (assay: Antifungal activity against Candida albicans MTCC 3018 incubated for 24 hrs at 30 degC by well diffusion method). Conditions: MTCC 3018, 24 h.
Type: functional

Row | MIC [µg/mL] | Structure (SMILES)
10 | 7.8 (≈ 18.7 µM) | Clc1ccc(COC(Cn2ccnc2)c2ccc(Cl)cc2Cl)c(Cl)c1 (centres undefined) [MICONAZOLE]

Each compound was assayed on Candida albicans (assay: Fungicidal activity against Candida albicans MTCC 7315 incubated for 24 hrs). Conditions: MTCC 7315, 24 h.
Type: functional

Row | Structure (SMILES) | MFC [µg/mL]
11 | Clc1ccc(COC(Cn2ccnc2)c2ccc(Cl)cc2Cl)c(Cl)c1 (centres undefined) [MICONAZOLE] | 7.8 (≈ 18.7 µM)

These compounds were tested on Candida parapsilosis (assay: Fungicidal activity against Candida parapsilosis MTCC 1744 incubated for 24 hrs). Conditions: Lodderomyces parapsilosis, MTCC 1744, 24 h.
Type: functional

Row | Structure (SMILES) | MFC [µg/mL]
12 | Clc1ccc(COC(Cn2ccnc2)c2ccc(Cl)cc2Cl)c(Cl)c1 (centres undefined) [MICONAZOLE] | 7.8 (≈ 18.7 µM)

Each compound was assayed on Pichia sporocuriosa (assay: Antifungal activity against Issatchenkia hanoiensis MTCC 4755 incubated for 24 hrs at 30 degC by well diffusion method). Conditions: MTCC 4755, 24 h.
Type: functional

Row | MIC [µg/mL] | Structure (SMILES)
13 | 7.8 (≈ 18.7 µM) | Clc1ccc(COC(Cn2ccnc2)c2ccc(Cl)cc2Cl)c(Cl)c1 (centres undefined) [MICONAZOLE]

What follows are compounds tested on Candida albicans (assay: Antifungal activity against Candida albicans MTCC 3958 incubated for 24 hrs at 30 degC by well diffusion method). Conditions: MTCC 3958, 24 h.
Type: functional

Row | MIC [µg/mL] | Structure (SMILES)
14 | 7.8 (≈ 18.7 µM) | Clc1ccc(COC(Cn2ccnc2)c2ccc(Cl)cc2Cl)c(Cl)c1 (centres undefined) [MICONAZOLE]

Each compound was assayed on Candida albicans (assay: Antifungal activity against Candida albicans MTCC 183 incubated for 24 hrs at 30 degC by well diffusion method). Conditions: MTCC 183, 24 h.
Type: functional

Row | MIC [µg/mL] | Structure (SMILES)
15 | 7.8 (≈ 18.7 µM) | Clc1ccc(COC(Cn2ccnc2)c2ccc(Cl)cc2Cl)c(Cl)c1 (centres undefined) [MICONAZOLE]

What follows are compounds tested on Candida albicans (assay: Fungicidal activity against Candida albicans MTCC 227 incubated for 24 hrs). Conditions: MTCC 227, 24 h.
Type: functional

Row | Structure (SMILES) | MFC [µg/mL]
16 | Clc1ccc(COC(Cn2ccnc2)c2ccc(Cl)cc2Cl)c(Cl)c1 (centres undefined) [MICONAZOLE] | 15.6 (≈ 37.5 µM)

The compounds below were run on Candida albicans (assay: Antifungal activity against Candida albicans MTCC 3017 incubated for 24 hrs at 30 degC by well diffusion method). Conditions: MTCC 3017, 24 h.
Type: functional

Row | MIC [µg/mL] | Structure (SMILES)
17 | 7.8 (≈ 18.7 µM) | Clc1ccc(COC(Cn2ccnc2)c2ccc(Cl)cc2Cl)c(Cl)c1 (centres undefined) [MICONAZOLE]

These compounds were tested on Nakaseomyces glabratus (assay: Antifungal activity against Candida glabrata MTCC 3019 incubated for 24 hrs at 30 degC by well diffusion method). Conditions: MTCC 3019, 24 h.
Type: functional

Row | MIC [µg/mL] | Structure (SMILES)
18 | 7.8 (≈ 18.7 µM) | Clc1ccc(COC(Cn2ccnc2)c2ccc(Cl)cc2Cl)c(Cl)c1 (centres undefined) [MICONAZOLE]

The compounds below were run on Candida albicans (assay: Antifungal activity against Candida albicans MTCC 1637 incubated for 24 hrs at 30 degC by well diffusion method). Conditions: MTCC 1637, 24 h.
Type: functional

Row | MIC [µg/mL] | Structure (SMILES)
19 | 7.8 (≈ 18.7 µM) | Clc1ccc(COC(Cn2ccnc2)c2ccc(Cl)cc2Cl)c(Cl)c1 (centres undefined) [MICONAZOLE]

These compounds were tested on Candida albicans (assay: Fungicidal activity against Candida albicans MTCC 4748 incubated for 24 hrs). Conditions: MTCC 4748, 24 h.
Type: functional

Row | Structure (SMILES) | MFC [µg/mL]
20 | Clc1ccc(COC(Cn2ccnc2)c2ccc(Cl)cc2Cl)c(Cl)c1 (centres undefined) [MICONAZOLE] | 7.8 (≈ 18.7 µM)

The compounds below were run on Pichia kudriavzevii (assay: Fungicidal activity against Candida krusei MTCC 3020 incubated for 24 hrs). Conditions: MTCC 3020, 24 h.
Type: functional

Row | Structure (SMILES) | MFC [µg/mL]
21 | Clc1ccc(COC(Cn2ccnc2)c2ccc(Cl)cc2Cl)c(Cl)c1 (centres undefined) [MICONAZOLE] | 7.8 (≈ 18.7 µM)

These compounds were tested on Candida albicans (assay: Fungicidal activity against Candida albicans MTCC 3017 incubated for 24 hrs). Conditions: MTCC 3017, 24 h.
Type: functional

Row | Structure (SMILES) | MFC [µg/mL]
22 | Clc1ccc(COC(Cn2ccnc2)c2ccc(Cl)cc2Cl)c(Cl)c1 (centres undefined) [MICONAZOLE] | 7.8 (≈ 18.7 µM)

Each compound was assayed on [Candida] aaseri (assay: Antifungal activity against Candida aaseri MTCC 1962 incubated for 24 hrs at 30 degC by well diffusion method). Conditions: Yamadazyma aaseri, MTCC 1962, 24 h.
Type: functional

Row | MIC [µg/mL] | Structure (SMILES)
23 | 7.8 (≈ 18.7 µM) | Clc1ccc(COC(Cn2ccnc2)c2ccc(Cl)cc2Cl)c(Cl)c1 (centres undefined) [MICONAZOLE]

What follows are compounds tested on Candida albicans (assay: Fungicidal activity against Candida albicans MTCC 3958 incubated for 24 hrs). Conditions: MTCC 3958, 24 h.
Type: functional

Row | Structure (SMILES) | MFC [µg/mL]
24 | Clc1ccc(COC(Cn2ccnc2)c2ccc(Cl)cc2Cl)c(Cl)c1 (centres undefined) [MICONAZOLE] | 15.6 (≈ 37.5 µM)

Each compound was assayed on Candida albicans (assay: Antifungal activity against Candida albicans MTCC 854 incubated for 24 hrs at 30 degC by well diffusion method). Conditions: MTCC 854, 24 h.
Type: functional

Row | MIC [µg/mL] | Structure (SMILES)
25 | 7.8 (≈ 18.7 µM) | Clc1ccc(COC(Cn2ccnc2)c2ccc(Cl)cc2Cl)c(Cl)c1 (centres undefined) [MICONAZOLE]

These compounds were tested on Candida albicans (assay: Induction of ROS accumulation in Candida albicans MTCC 227 sessile cells at 2 to 8 ug/ml incubated for 24 hrs by DCFH-DA dye based microplate reader analysis). Conditions: not given.
Type: functional, organism-based

Row | Structure (SMILES) | Activity
26 | Clc1ccc(COC(Cn2ccnc2)c2ccc(Cl)cc2Cl)c(Cl)c1 (centres undefined) [MICONAZOLE] | Active

The compounds below were run on Candida albicans (assay: Fungicidal activity against Candida albicans MTCC 854 incubated for 24 hrs). Conditions: MTCC 854, 24 h.
Type: functional

Row | Structure (SMILES) | MFC [µg/mL]
27 | Clc1ccc(COC(Cn2ccnc2)c2ccc(Cl)cc2Cl)c(Cl)c1 (centres undefined) [MICONAZOLE] | 15.6 (≈ 37.5 µM)

What follows are compounds tested on Candida parapsilosis (assay: Antifungal activity against Candida parapsilosis MTCC 1744 incubated for 24 hrs at 30 degC by well diffusion method). Conditions: Lodderomyces parapsilosis, MTCC 1744, 24 h.
Type: functional

Row | MIC [µg/mL] | Structure (SMILES)
28 | 7.8 (≈ 18.7 µM) | Clc1ccc(COC(Cn2ccnc2)c2ccc(Cl)cc2Cl)c(Cl)c1 (centres undefined) [MICONAZOLE]

What follows are compounds tested on Nakaseomyces glabratus (assay: Fungicidal activity against Candida glabrata MTCC 3019 incubated for 24 hrs). Conditions: MTCC 3019, 24 h.
Type: functional

Row | Structure (SMILES) | MFC [µg/mL]
29 | Clc1ccc(COC(Cn2ccnc2)c2ccc(Cl)cc2Cl)c(Cl)c1 (centres undefined) [MICONAZOLE] | 15.6 (≈ 37.5 µM)
